Patent publication US10150740B2, “6,7-dihydropyrido[2,1-A]phthalazin-2-ones for the treatment and prophylaxis of hepatitis B virus infection” (priority 2015, dated 2018)
Counter-ions that a name gives are not always drawn.

system: HBsAg; assay: cells; settings: Hepatitis B virus, HepG2.2.15, read-out: IC50 (HBsAg secretion)
Procedure: HepG2.2.15 cells (Acs et al. Proc Natl Acad Sci USA, 84, (1987), 4641-4), a constitutively HBV-expressing cell line were cultured in DMEM+Glutamax-I medium (Invitrogen, Carlsbad, Calif., USA), supplemented with 10% fetal bovine serum (Invitrogen) and G418 (Invitrogen) at a final concentration of 200 mg/L and maintained in 5% CO2 at 37° C.
HepG2.2.15 cells were seeded in duplicate into white, 96-well plates at 1.5×10^4 cells/well. The cells were treated with a three-fold serial dilution series of the compounds in DMSO. The final DMSO concentration in all wells was 1% and DMSO was used as no drug control.
The HBsAg chemiluminescence immunoassay (CLIA) kit (Autobio Diagnostics Co., Zhengzhou, China, Catalog number: CL0310-2) was used to measure the levels of secreted HBV antigens semi-quantitatively. For the detection 50 μL/well culture supernatant was used and HBsAg was quantified using HBsAg chemiluminescence immunoassay (CLIA) kit (Autobio Diagnostics Co., Zhengzhou, China, Catalog number: CL0310-2), 50 μL of the supernatant was transferred to the CLIA assay plate and 50 μL of enzyme conjugate reagent was added into each well. The plates were sealed and gently agitated for 1 hour at room temperature. The supernatant-enzyme-mixture was discarded and wells were washed 6 times with 300 μL of PBS. The residual liquid was removed by plating the CLIA plate right side down on absorbent tissue paper. 25 μL of substrates A and B were added to each well. Luminance was measured using a luminometer (Mithras LB 940 Multimode Microplate Reader) after 10 minutes incubation. Dose-response curves were generated and the IC50 value was extrapolated by using the E-WorkBook Suite (ID Business Solutions Ltd., Guildford, UK). The IC50 was defined as the compound concentration (or conditioned media log dilution) at which HBsAg secretion was reduced by 50% compared to the no drug control.

SMILES	IC50 [µM]
COc1cc2c(cc1OC)-c1cc(=O)c(C(=O)O)cn1NC2 [Example 1, 9,10-Dimethoxy-2-oxo-6,7-dihydropyrido[2,1-a]phthalazine-3-carboxylic acid]	18.7
COc1cc2c(cc1OC)-c1cc(=O)c(C(=O)O)cn1N(C)C2 [Example 2, 9,10-Dimethoxy-6-methyl-2-oxo-7H-pyrido[2,1-a]phthalazine-3-carboxylic acid]	2.53
C=CCN1Cc2cc(OC)c(OC)cc2-c2cc(=O)c(C(=O)O)cn21 [Example 3, 6-Allyl-9,10-dimethoxy-2-oxo-7H-pyrido[2,1-a]phthalazine-3-carboxylic acid]	0.74
COc1cc2c(cc1OC)-c1cc(=O)c(C(=O)O)cn1N(C(C)C)C2 [Example 4, 6-Isopropyl-9,10-dimethoxy-2-oxo-7H-pyrido[2,1-a]phthalazine-3-carboxylic acid]	26.1
COc1cc2c(cc1OC)-c1cc(=O)c(C(=O)O)cn1N(CC(C)C)C2 [Example 5, 6-Isobutyl-9,10-dimethoxy-2-oxo-7H-pyrido[2,1-a]phthalazine-3-carboxylic acid]	0.248
COCCCOc1cc2c(cc1OC)-c1cc(=O)c(C(=O)O)cn1N(CC(C)C)C2 [Example 6, 6-Isobutyl-10-methoxy-9-(3-methoxypropoxy)-2-oxo-7H-pyrido[2,1-a]phthalazine-3-carboxylic acid]	0.053
COc1cc2c(cc1OCC(F)(F)F)CN(CC(C)C)n1cc(C(=O)O)c(=O)cc1-2 [Example 7, 6-Isobutyl-10-methoxy-2-oxo-9-(2,2,2-trifluoroethoxy)-7H-pyrido[2,1-a]phthalazine-3-carboxylic acid]	0.172
COc1cc2c(cc1OCC1CCOCC1)CN(CC(C)C)n1cc(C(=O)O)c(=O)cc1-2 [Example 8, 6-Isobutyl-10-methoxy-2-oxo-9-(tetrahydropyran-4-ylmethoxy)-7H-pyrido[2,1-a]phthalazine-3-carboxylic acid]	0.044
COc1cc2c(cc1OCCCS(C)(=O)=O)CN(CC(C)C)n1cc(C(=O)O)c(=O)cc1-2 [Example 9, 6-Isobutyl-10-methoxy-9-(3-methylsulfonylpropoxy)-2-oxo-7H-pyrido[2,1-a]phthalazine-3-carboxylic acid]	0.624
COc1cc2c(cc1OCCN1CCOCC1)CN(CC(C)C)n1cc(C(=O)O)c(=O)cc1-2 [Example 10, 6-Isobutyl-10-methoxy-9-(2-morpholinoethoxy)-2-oxo-7H-pyrido[2,1-a]phthalazine-3-carboxylic acid]	0.225
COc1cc2c(cc1OCC(C)(C)CO)CN(CC(C)C)n1cc(C(=O)O)c(=O)cc1-2 [Example 11, 9-(3-Hydroxy-2,2-dimethyl-propoxy)-6-isobutyl-10-methoxy-2-oxo-7H-pyrido[2,1-a]phthalazine-3-carboxylic acid]	0.039
COc1cc2c(cc1OCCCCC(=O)O)CN(CC(C)C)n1cc(C(=O)O)c(=O)cc1-2 [Example 12, 9-(4-Carboxybutoxy)-6-isobutyl-10-methoxy-2-oxo-7H-pyrido[2,1-a]phthalazine-3-carboxylic acid]	9.43
COc1cc2c(cc1OCCCC#N)CN(CC(C)C)n1cc(C(=O)O)c(=O)cc1-2 [Example 13, 9-(3-Cyanopropoxy)-6-isobutyl-10-methoxy-2-oxo-7H-pyrido[2,1-a]phthalazine-3-carboxylic acid]	0.11
COc1cc2c(cc1OCCCCCNC(=O)OC(C)(C)C)CN(CC(C)C)n1cc(C(=O)O)c(=O)cc1-2 [Example 14, 9-[5-(Tert-butoxycarbonylamino)pentoxy]-6-isobutyl-10-methoxy-2-oxo-7H-pyrido[2,1-a]phthalazine-3-carboxylic acid]	0.047
COc1cc2c(cc1OCCCCCN)CN(CC(C)C)n1cc(C(=O)O)c(=O)cc1-2 [Example 15, 9-(5-Aminopentoxy)-6-isobutyl-10-methoxy-2-oxo-7H-pyrido[2,1-a]phthalazine-3-carboxylic acid hydrochloride]	0.5
